Patent US8697739B2, “Bicyclic acetyl-CoA carboxylase inhibitors and uses thereof” (Novartis AG, priority 2010, dated 2014)

These compounds were tested against T1, human acetyl-CoA carboxylase 2 (ACC2) (Homo sapiens, UniProt O00763) (assay: Acetyl-CoA carboxylase enzyme assay (malonyl-CoA formation by LC/MS/MS)). Conditions: recombinant human ACC2 (aa 144-2458); read-out: IC50 ACC2.
T1 construct: The cDNA encoding amino acids 144 to 2458 of human acetyl-CoA carboxylase 2; made in house; host or cells: Sf9 insect cells (baculovirus, pFastBac1)
Type: biochemical
Source text: The cDNA encoding amino acids 144 to 2458 of human acetyl-CoA carboxylase 2 (ACC2, GenBank Accession #NM_001093) was cloned into the SalI and NotI sites of pFastBac1 (Invitrogen; Carlsbad, Calif.). The resulting plasmid was used to generate a recombinant ACC2 baculovirus that was amplified and titered according to the protocols in the Bac-to-Bac baculovirus expression system manual (Invitrogen). The titered virus was used to infect Sf9 cells grown in Ex-Cell 420 serum-free medium (JRH Biosciences; Lenexa, Kans.). At 48 hours post-infection, the cells were harvested and stored at −80° C. until purification. ACC2 was purified using ammonium sulfate precipitation and anion exchange chromatography.
The enzymatic assay was run as follows: 30 μL of reaction buffer (100 mM HEPES pH 7.5, 20 mM MgCl2, 20 mM potassium citrate, 2 mM DTT) was added to a 384-well microtiter plate followed by 2 μL of the test compound (or 100% DMSO control). ACC2 protein (10 μL of a 50 nM working solution) was added to plate, which was incubated at room temperature for 15 minutes. A 30 μL addition of substrate solution (50 μM acetyl-CoA, 120 μM ATP, 2 mM KHCO3) was used to initiate the reactions which were quenched with 6% acetic acid (40 μL). ACC catalyzed malonyl-CoA formation was detected by LC/MS/MS using a Cohesive Technologies LX Series multiplex LC/MSIMS system configured with four binary pumps (Agilent Technologies; Palo Alto, Calif.), a dual arm autosampler (Leap Technologies; Cary, N.C.), and one Quattro Micro triple quadrupole mass spectrometer (Waters, Milford, Mass.), all run by Aria Software version 1.5 (Cohesive Technologies; Franklin, Mass.). Four samples were injected (20 μL) onto four Phenosphere NEXT C18 30×2 mm 5 μm columns (Phenomenex; Torrance, Calif.), eluted by four separate pumps, running identical gradients, through a column switching manifold with the one outlet fitted to the electrospray (ESI) source. Malonyl-CoA was eluted with 5 mM ammonium acetate, pH 4.5 (Buffer A) and 100% acetonitrile (Buffer B) via a step gradient. Argon was used as the collision gas and the following species were monitored via MRM detection: malonyl-CoA (853.8>346.9), internal standard (A: [^13C3]-malonyl-CoA, 857>350). The lower limit of detection is 0.3 uM for malonyl-CoA in this assay.

T1 sequence (O00763 144-2458): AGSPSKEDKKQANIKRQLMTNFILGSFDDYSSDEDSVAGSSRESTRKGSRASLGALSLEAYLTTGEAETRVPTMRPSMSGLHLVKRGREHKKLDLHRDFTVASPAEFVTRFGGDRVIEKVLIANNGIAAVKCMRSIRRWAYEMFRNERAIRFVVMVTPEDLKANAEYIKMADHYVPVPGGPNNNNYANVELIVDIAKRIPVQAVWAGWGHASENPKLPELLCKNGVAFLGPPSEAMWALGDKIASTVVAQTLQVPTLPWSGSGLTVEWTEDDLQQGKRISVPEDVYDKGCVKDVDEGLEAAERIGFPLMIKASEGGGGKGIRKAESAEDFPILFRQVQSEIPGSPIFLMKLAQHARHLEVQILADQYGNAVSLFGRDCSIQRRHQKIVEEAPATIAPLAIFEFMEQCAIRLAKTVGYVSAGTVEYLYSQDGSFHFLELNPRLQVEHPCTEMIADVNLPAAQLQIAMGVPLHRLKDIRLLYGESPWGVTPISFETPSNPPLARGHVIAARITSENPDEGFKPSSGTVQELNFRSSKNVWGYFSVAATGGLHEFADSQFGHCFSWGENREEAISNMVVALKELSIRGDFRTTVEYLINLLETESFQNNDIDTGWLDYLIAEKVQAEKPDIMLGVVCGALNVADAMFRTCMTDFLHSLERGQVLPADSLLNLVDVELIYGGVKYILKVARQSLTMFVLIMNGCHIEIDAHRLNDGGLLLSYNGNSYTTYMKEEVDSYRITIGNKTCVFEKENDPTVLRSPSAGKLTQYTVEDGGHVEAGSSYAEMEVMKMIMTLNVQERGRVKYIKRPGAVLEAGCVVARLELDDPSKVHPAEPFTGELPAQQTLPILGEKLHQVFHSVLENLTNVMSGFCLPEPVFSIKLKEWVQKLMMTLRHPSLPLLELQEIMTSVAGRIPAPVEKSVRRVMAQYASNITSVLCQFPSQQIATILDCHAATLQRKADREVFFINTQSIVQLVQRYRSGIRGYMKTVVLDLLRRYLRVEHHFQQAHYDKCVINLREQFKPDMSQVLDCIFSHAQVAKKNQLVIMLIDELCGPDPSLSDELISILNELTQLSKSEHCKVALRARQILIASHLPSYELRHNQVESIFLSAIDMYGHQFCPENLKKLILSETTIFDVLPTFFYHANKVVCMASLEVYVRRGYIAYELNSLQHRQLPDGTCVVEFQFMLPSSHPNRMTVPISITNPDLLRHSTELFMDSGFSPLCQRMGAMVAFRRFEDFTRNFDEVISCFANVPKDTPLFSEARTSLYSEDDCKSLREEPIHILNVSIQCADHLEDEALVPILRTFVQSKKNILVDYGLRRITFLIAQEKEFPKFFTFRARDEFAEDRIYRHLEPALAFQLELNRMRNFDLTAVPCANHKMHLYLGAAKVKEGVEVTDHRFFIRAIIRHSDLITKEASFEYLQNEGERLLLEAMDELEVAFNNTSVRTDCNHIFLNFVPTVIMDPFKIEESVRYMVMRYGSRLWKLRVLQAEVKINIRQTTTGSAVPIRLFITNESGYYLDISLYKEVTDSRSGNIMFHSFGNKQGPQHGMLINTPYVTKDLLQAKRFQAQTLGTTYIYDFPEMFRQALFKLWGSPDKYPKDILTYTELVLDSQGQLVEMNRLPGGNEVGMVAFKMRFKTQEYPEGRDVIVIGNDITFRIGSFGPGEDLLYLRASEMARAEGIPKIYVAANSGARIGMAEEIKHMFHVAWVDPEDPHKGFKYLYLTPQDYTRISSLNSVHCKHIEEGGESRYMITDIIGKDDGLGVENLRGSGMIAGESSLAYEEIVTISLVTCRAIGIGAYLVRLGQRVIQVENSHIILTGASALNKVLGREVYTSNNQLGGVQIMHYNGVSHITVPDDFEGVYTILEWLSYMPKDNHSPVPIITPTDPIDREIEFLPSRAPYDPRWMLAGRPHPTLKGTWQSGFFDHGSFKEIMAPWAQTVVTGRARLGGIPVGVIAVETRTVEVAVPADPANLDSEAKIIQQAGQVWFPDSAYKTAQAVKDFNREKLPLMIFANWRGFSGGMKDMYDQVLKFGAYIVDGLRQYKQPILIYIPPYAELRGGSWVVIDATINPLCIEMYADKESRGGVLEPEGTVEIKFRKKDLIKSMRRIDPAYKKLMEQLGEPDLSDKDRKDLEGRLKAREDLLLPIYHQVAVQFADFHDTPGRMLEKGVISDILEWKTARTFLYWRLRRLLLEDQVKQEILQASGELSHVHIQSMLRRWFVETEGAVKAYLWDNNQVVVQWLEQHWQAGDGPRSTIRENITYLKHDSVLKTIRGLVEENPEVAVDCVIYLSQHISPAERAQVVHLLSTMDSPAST

SMILES	IC50
C[C@@H](NC(=O)[C@H]1CC[C@H](NS(=O)(=O)c2cnc3ccccc3c2)CC1)c1ccccc1 [Example 55, (1r,4R)-N-((R)-1-phenylethyl)-4-(quinoline-3-sulfonamido)cyclohexanecarboxamide]	134 nM
CC[C@@H](NC(=O)[C@H]1CC[C@H](NS(=O)(=O)c2cnc3ccccc3c2)CC1)c1ccccc1 [Example 56, (1r,4R)-N-((R)-1-phenylpropyl)-4-(quinoline-3-sulfonamido)cyclohexanecarboxamide]	189 nM
C[C@@H](NC(=O)[C@H]1CC[C@H](NS(=O)(=O)c2cnc3ccccc3c2)CC1)c1ccc(Cl)cc1 [Example 57, (1r,4R)-N-((R)-1-(4-chlorophenyl)ethyl)-4-(quinoline-3-sulfonamido)cyclohexanecarboxamide]	112 nM
C[C@@H](NC(=O)[C@H]1CC[C@H](NS(=O)(=O)c2cnc3ccccc3c2)CC1)c1ccccc1F [Example 58, (1r,4R)-N-((R)-1-(2-fluorophenyl)ethyl)-4-(quinoline-3-sulfonamido)cyclohexanecarboxamide]	185 nM
O=C([C@H]1CC[C@H](NS(=O)(=O)c2cnc3ccccc3c2)CC1)N1CCCCC1c1ccccc1 (stereo partly drawn) [Example 59, N-((1r,4r)-4-(2-phenylpiperidine-1-carbonyl)cyclohexyl)quinoline-3-sulfonamide]	339 nM
CC(C)(C)OC(=O)N1CCN(C(=O)[C@H]2CC[C@H](NS(=O)(=O)c3cnc4ccccc4c3)CC2)C(c2ccccc2)C1 (stereo partly drawn) [Example 60, tert-butyl 3-phenyl-4-((1r,4r)-4-(quinoline-3-sulfonamido)cyclohexanecarbonyl)piperazine-1-carboxylate]	131 nM
O=C([C@H]1CC[C@H](NS(=O)(=O)c2cnc3ccccc3c2)CC1)N1CCNCC1c1ccccc1 (stereo partly drawn) [Example 61, N-((1r,4r)-4-(2-phenylpiperazine-1-carbonyl)cyclohexyl)quinoline-3-sulfonamide]	98 nM
CC(NC(=O)[C@H]1CC[C@H](NS(=O)(=O)c2cnc3ccccc3c2)CC1)c1cnn(C)c1 (stereo partly drawn) [Example 62, (1r,4r)-N-(1-(1-methyl-1H-pyrazol-4-yl)ethyl)-4-(quinoline-3-sulfonamido)cyclohexanecarboxamide]	> 35000 nM
Cc1c(C(F)(F)F)nc2cccc(S(=O)(=O)N[C@H]3CC[C@H](C(=O)N[C@H](C)c4ccc(F)cc4)CC3)n12 [Example 63, (1r,4R)-N-((R)-1-(4-fluorophenyl)ethyl)-4-(3-methyl-2-(trifluoromethyl)imidazo[1,2-a]pyridine-5-sulfonamido)cyclohexanecarboxamide]	> 35000 nM
C[C@@H](NC(=O)[C@H]1CC[C@H](NS(=O)(=O)c2ccc3nc(OC4COC4)ccc3c2)CC1)c1ccc(F)cc1 [Example 64, (1r,4R)-N-((R)-1-(4-fluorophenyl)ethyl)-4-(2-(oxetan-3-yloxy)quinoline-6-sulfonamido)cyclohexanecarboxamide]	42 nM
C[C@@H](NC(=O)[C@H]1CC[C@H](NS(=O)(=O)c2cccc3nc(-c4ccccc4)cn23)CC1)c1ccc(F)cc1 [Example 65, (1r,4R)-N-((R)-1-(4-fluorophenyl)ethyl)-4-(2-phenylimidazo[1,2-a]pyridine-5-sulfonamido)cyclohexanecarboxamide]	149 nM
CC(NC(=O)[C@H]1CC[C@H](NS(=O)(=O)c2cnc3ccccc3c2)CC1)c1ccc(F)c(F)c1 (stereo partly drawn) [Example 66, (1r,4r)-N-(1-(3,4-difluorophenyl)ethyl)-4-(quinoline-3-sulfonamido)cyclohexanecarboxamide]	205 nM
CC(NC(=O)[C@H]1CC[C@H](NS(=O)(=O)c2cnc3ccccc3c2)CC1)c1ccc(F)cc1F (stereo partly drawn) [Example 67, (1r,4r)-N-(1-(2,4-difluorophenyl)ethyl)-4-(quinoline-3-sulfonamido)cyclohexanecarboxamide]	240 nM
Cc1ccccc1-c1nc2cc(S(=O)(=O)N[C@H]3CC[C@H](C(=O)N[C@H](C)c4ccc(F)cc4)CC3)cnc2o1 [Example 76, (1r,4R)-N-((R)-1-(4-fluorophenyl)ethyl)-4-(2-o-tolyloxazolo[5,4-b]pyridine-6-sulfonamido)cyclohexanecarboxamide]	590 nM

Now from value to compound:

IC50	SMILES
70 nM	COCCOc1ccc2cc(S(=O)(=O)N[C@H]3CC[C@H](C(=O)N[C@H](C)c4ccc(F)cc4)CC3)ccc2n1 [Example 68, (1r,4R)-N-((R)-1-(4-fluorophenyl)ethyl)-4-(2-(2-methoxyethoxy)quinoline-6-sulfonamido)cyclohexanecarboxamide]
50 nM	C[C@@H](NC(=O)[C@H]1CC[C@H](NS(=O)(=O)c2ccc3nc(OCCN(C)C)ccc3c2)CC1)c1ccc(F)cc1 [Example 69, (1r,4R)-4-(2-(2-(dimethylamino)ethoxy)quinoline-6-sulfonamido)-N-((R)-1-(4-fluorophenyl)ethyl)cyclohexanecarboxamide]
165 nM	Cc1c(-c2ccccc2)nc2ccc(S(=O)(=O)N[C@H]3CC[C@H](C(=O)N[C@H](C)c4ccc(F)cc4)CC3)cn12 [Example 70, (1r,4R)-N-((R)-1-(4-fluorophenyl)ethyl)-4-(3-methyl-2-phenylimidazo[1,2-a]pyridine-6-sulfonamido)cyclohexanecarboxamide]
405 nM	C=Cc1ccc2cc(S(=O)(=O)N[C@H]3CC[C@H](C(=O)N[C@H](C)c4ccc(F)cc4)CC3)ccc2n1 [Example 71, (1r,4R)-N-((R)-1-(4-fluorophenyl)ethyl)-4-(2-vinylquinoline-6-sulfonamido)cyclohexanecarboxamide]
115 nM	Cc1ccc2cc(S(=O)(=O)N[C@H]3CC[C@H](C(=O)N[C@H](C)c4ccc(F)cc4)CC3)ccc2n1 [Example 72, (1r,4R)-N-((R)-1-(4-fluorophenyl)ethyl)-4-(2-methylquinoline-6-sulfonamido)cyclohexanecarboxamide]
175 nM	CCOC(=O)COc1ccc2cc(S(=O)(=O)N[C@H]3CC[C@H](C(=O)N[C@H](C)c4ccc(F)cc4)CC3)ccc2n1 [Example 73, ethyl 2-(6-(N-((1R,4r)-4-((R)-1-(4-fluorophenyl)ethylcarbamoyl)cyclohexyl)sulfamoyl)quinolin-2-yloxy)acetate]
160 nM	CCc1ccc2cc(S(=O)(=O)N[C@H]3CC[C@H](C(=O)N[C@H](C)c4ccc(F)cc4)CC3)ccc2n1 [Example 74, (1r,4R)-4-(2-ethylquinoline-6-sulfonamido)-N-((R)-1-(4-fluorophenyl)ethyl)cyclohexanecarboxamide]
95 nM	Cc1ccccc1-c1nc2cc(S(=O)(=O)N[C@H]3CC[C@H](C(=O)N[C@H](C)c4ccc(F)cc4)CC3)cnc2s1 [Example 75, (1r,4R)-N-((R)-1-(4-fluorophenyl)ethyl)-4-(2-o-tolylthiazolo[5,4-b]pyridine-6-sulfonamido)cyclohexanecarboxamide]
50 nM	CCC1CCc2cc(S(=O)(=O)N[C@H]3CC[C@H](C(=O)N[C@H](C)c4ccc(F)cc4)CC3)ccc2N1 (stereo partly drawn) [Example 77, (1r,4R)-4-(2-ethyl-1,2,3,4-tetrahydroquinoline-6-sulfonamido)-N-((R)-1-(4-fluorophenyl)ethyl)cyclohexanecarboxamide]
470 nM	C[C@@H](NC(=O)[C@H]1CC[C@H](NS(=O)(=O)c2ccc3nc(OCC(=O)O)ccc3c2)CC1)c1ccc(F)cc1 [Example 78, 2-(6-(N-((1R,4r)-4-((R)-1-(4-fluorophenyl)ethylcarbamoyl)cyclohexyl)sulfamoyl)quinolin-2-yloxy)acetic acid]
115 nM	C[C@@H](NC(=O)[C@H]1CC[C@H](NS(=O)(=O)c2ccc3nc(-c4ccccc4)cn3c2)CC1)c1ccc(F)cc1 [Example 79, (1r,4R)-N-((R)-1-(4-fluorophenyl)ethyl)-4-(2-phenylimidazo[1,2-a]pyridine-6-sulfonamido)cyclohexanecarboxamide]
40 nM	C[C@@H](NC(=O)[C@H]1CC[C@H](NS(=O)(=O)c2ccc3nc(OC(C)(C)CO)ccc3c2)CC1)c1ccc(F)cc1 [Example 80, (1r,4R)-N-((R)-1-(4-fluorophenyl)ethyl)-4-(2-(1-hydroxy-2-methylpropan-2-yloxy)quinoline-6-sulfonamido)cyclohexanecarboxamide]
95 nM	C[C@@H](NC(=O)[C@H]1CC[C@H](NS(=O)(=O)c2ccc3nc(OCC(C)(C)O)ccc3c2)CC1)c1ccc(F)cc1 [Example 81, (1r,4R)-N-((R)-1-(4-fluorophenyl)ethyl)-4-(2-(2-hydroxy-2-methylpropoxy)quinoline-6-sulfonamido)cyclohexanecarboxamide]
